Assays:
[1] = target: T1, Mineralocorticoid receptor (Homo sapiens) (UniProt P08235); experiment: Agonist activity at mineralocorticoid receptor by MR activation assay; type: functional
T1 sequence (whole entry): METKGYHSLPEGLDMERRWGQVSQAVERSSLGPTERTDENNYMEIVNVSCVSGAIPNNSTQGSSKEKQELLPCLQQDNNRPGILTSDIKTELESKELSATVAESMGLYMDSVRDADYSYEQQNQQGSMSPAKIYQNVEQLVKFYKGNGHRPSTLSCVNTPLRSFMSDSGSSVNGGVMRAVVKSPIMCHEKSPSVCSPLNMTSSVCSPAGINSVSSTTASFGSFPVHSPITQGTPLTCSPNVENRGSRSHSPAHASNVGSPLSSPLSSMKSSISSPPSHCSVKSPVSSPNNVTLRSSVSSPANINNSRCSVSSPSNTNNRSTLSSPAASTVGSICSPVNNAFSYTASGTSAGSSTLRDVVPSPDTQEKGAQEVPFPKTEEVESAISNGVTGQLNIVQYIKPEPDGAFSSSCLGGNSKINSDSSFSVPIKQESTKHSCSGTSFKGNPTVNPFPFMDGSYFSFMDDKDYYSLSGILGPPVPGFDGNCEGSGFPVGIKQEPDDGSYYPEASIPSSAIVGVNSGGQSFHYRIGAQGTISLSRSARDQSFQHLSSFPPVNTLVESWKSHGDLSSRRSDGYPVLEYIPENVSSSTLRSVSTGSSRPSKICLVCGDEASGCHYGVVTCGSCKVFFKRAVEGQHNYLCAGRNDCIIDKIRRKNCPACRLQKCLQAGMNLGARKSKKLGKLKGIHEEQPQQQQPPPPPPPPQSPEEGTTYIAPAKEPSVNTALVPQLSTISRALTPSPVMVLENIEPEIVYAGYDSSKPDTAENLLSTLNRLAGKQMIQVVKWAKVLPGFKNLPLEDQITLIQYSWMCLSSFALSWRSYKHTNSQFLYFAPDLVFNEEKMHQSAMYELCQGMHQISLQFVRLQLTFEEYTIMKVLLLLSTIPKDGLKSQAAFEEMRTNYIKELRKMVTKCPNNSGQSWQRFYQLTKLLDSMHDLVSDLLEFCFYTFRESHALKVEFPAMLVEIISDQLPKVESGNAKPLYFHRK

Glucocorticoid receptor = target: T2, Glucocorticoid receptor (Homo sapiens, UniProt P04150); experiment: Activity at human GR expressed in NHDFneo cells assessed as inhibition of IL-6 production; type: cell-based
T2 sequence (P04150 whole entry): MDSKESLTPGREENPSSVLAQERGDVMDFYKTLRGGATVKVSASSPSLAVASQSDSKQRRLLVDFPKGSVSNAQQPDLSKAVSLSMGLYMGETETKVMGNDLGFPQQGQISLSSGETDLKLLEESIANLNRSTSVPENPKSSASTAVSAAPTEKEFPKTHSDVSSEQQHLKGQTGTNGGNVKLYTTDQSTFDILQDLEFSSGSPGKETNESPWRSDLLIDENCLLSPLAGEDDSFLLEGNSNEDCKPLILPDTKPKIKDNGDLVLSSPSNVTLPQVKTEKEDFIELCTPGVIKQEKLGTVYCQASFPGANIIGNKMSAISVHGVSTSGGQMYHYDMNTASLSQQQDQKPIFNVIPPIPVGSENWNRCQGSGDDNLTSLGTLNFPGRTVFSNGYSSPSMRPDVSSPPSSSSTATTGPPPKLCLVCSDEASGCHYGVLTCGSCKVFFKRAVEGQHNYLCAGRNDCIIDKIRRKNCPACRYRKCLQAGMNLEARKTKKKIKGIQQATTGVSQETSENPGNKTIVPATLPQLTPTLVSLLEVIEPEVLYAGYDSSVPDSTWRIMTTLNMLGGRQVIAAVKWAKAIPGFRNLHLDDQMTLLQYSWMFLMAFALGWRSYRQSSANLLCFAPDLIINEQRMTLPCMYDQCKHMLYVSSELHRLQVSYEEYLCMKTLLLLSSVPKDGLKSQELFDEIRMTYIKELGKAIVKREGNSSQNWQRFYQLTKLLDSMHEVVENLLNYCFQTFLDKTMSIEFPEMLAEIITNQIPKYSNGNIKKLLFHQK

RPMI-8226 [2] = experiment: Antiproliferative activity against human RPMI8226 cells after 4 days; type: functional, cell-based; conditions: RPMI-8226, 96 h
Androgen receptor = target: T3, Androgen receptor (Homo sapiens, UniProt P10275); experiment: Binding affinity to AR
T3 sequence (P10275 whole entry): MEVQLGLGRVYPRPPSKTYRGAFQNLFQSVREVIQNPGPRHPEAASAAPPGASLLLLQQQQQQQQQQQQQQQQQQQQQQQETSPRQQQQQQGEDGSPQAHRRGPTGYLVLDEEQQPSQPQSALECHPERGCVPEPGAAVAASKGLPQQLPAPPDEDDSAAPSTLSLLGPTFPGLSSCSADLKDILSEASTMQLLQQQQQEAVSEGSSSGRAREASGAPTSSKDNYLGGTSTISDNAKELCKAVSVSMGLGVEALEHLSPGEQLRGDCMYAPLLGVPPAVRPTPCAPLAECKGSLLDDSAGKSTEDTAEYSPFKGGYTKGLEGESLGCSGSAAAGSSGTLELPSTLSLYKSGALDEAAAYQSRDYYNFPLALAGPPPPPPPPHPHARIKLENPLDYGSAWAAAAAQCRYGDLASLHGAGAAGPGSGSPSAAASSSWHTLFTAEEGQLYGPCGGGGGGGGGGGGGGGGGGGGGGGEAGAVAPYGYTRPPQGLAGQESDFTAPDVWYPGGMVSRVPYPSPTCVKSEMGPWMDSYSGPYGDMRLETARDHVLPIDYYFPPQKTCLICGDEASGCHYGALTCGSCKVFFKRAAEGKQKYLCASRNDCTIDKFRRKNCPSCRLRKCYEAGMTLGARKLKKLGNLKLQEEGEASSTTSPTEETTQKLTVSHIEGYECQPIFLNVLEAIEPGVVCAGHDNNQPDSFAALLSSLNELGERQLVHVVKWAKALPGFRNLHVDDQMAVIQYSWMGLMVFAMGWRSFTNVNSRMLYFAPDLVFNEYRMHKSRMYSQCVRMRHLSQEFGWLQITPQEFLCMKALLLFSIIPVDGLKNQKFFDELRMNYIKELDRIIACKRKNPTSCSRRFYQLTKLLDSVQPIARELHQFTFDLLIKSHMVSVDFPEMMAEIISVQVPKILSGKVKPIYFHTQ

[3] = target: T1, Mineralocorticoid receptor (Homo sapiens); experiment: Antagonist activity at mineralocorticoid receptor by MR activation assay; type: functional; design: scale not given: the % may be the effect or the level left
RPMI-8226 [4] = experiment: Inhibition of tumor growth in human RPMI8226 cells xenografted nude mouse at 30 mg/kg, po after 4 weeks relative to Dexamethasone; type: functional
RPMI-8226 [5] = experiment: Inhibition of tumor growth in human RPMI8226 cells xenografted nude mouse at 100 mg/kg, po after 4 weeks relative to Dexamethasone; type: functional
RPMI-8226 [6] = experiment: Inhibition of tumor growth in human RPMI8226 cells xenografted nude mouse at 3 mg/kg, po after 4 weeks relative to Dexamethasone; type: functional
RPMI-8226 [7] = experiment: Inhibition of tumor growth in human RPMI8226 cells xenografted nude mouse at 10 mg/kg, po after 4 weeks relative to Dexamethasone; type: functional

Activity [1] [%] | IC50 (Glucocorticoid receptor) [nM] | IC50 (RPMI-8226 [2]) [nM] | Ki (Androgen receptor) [nM] | Activity [3] [%] | SMILES | Efficacy (RPMI-8226 [4]) [%] | Efficacy (RPMI-8226 [5]) [%] | Efficacy (RPMI-8226 [6]) [%] | Efficacy (RPMI-8226 [7]) [%]
25 | 0.2 | 8.5 | 150 | 55 | COCc1ccsc1/C=C1\Oc2ccc(O)c(OC)c2-c2ccc3c(c21)C(C)=CC(C)(C)N3 |  |  |  | 
 | 0.2 | 4.9 | 290 |  | COc1c(O)ccc2c1-c1ccc3c(c1/C(=C/c1sccc1CO)O2)C(C)=CC(C)(C)N3 | 80 | 97 | 29 | 

SMILES | Activity [1] [%] | IC50 (Glucocorticoid receptor) [nM] | IC50 (RPMI-8226 [2]) [nM] | Ki (Androgen receptor) [nM] | Activity [3] [%] | Efficacy (RPMI-8226 [4]) [%] | Efficacy (RPMI-8226 [5]) [%] | Efficacy (RPMI-8226 [6]) [%] | Efficacy (RPMI-8226 [7]) [%]
CO/N=C(\C)c1ccsc1/C=C1\Oc2ccc(O)c(OC)c2-c2ccc3c(c21)C(C)=CC(C)(C)N3 |  | 0.2 | 9.5 | 110 |  | 82 | 95 |  | 78
